Source: patent publication US20240382475A1, “Quinazoline Derivative, Or Preparation Method Therefor And Use Thereof” (Zhejiang Hisun Pharmaceutical Co., Ltd., priority 2021, published 2024)

Legend:
[1] = biological target: T1, KRAS-G12C/SOS1 (Homo sapiens, UniProt Q07889); assay: Blocking the binding of KRAS G12C protein to SOS1 (Cisbio KRAS-G12C/SOS1 binding assay kit, TR-FRET); conditions: Tag1-SOS1 and Tag2-KRAS-G12C, TR-FRET 665/620; read-out: IC50 (nM) Inhibition of KRAS-G12C/SOS1 binding
T1 construct: purchased Cisbio 63ADK000CB16PEG
T1 sequence (Q07889 1-1333): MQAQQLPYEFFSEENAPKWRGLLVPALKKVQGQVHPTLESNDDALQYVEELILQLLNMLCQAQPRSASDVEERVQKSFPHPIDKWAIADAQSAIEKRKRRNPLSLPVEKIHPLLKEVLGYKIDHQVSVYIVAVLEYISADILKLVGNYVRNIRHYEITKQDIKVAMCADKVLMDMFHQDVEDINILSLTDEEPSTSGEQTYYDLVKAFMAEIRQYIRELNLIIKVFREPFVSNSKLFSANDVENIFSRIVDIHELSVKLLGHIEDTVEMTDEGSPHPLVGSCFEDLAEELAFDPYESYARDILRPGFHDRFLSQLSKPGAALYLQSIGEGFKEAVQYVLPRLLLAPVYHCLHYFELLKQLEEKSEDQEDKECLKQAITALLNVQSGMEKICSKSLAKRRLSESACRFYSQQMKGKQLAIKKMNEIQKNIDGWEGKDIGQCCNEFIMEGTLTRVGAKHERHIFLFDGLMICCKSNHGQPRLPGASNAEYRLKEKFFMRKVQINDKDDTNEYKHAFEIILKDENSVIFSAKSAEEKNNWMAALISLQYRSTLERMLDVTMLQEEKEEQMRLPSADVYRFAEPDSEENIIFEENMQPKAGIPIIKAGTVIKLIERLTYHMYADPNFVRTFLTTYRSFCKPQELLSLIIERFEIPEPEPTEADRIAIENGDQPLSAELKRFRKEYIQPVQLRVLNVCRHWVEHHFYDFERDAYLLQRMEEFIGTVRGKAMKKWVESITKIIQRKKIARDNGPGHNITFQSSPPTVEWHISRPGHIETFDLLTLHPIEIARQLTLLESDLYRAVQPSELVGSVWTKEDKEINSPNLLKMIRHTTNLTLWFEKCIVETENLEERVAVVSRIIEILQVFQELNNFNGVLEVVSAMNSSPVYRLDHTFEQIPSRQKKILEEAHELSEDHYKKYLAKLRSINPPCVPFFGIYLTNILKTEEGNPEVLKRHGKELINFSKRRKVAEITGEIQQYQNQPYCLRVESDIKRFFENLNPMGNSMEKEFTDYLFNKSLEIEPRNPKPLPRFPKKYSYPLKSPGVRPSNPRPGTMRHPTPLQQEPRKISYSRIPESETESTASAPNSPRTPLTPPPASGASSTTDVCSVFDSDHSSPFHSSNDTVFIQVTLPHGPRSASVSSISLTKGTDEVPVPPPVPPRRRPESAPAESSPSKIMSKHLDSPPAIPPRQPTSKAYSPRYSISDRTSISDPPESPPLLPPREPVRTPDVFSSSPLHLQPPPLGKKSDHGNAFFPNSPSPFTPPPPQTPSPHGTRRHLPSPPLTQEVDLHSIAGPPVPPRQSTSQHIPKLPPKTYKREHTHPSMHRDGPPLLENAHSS
Excerpt: The following method was used to determine the abilities of compounds of the invention to block the interaction of SOS1 with the KRAS G12C protein in vitro. KRAS-G12C/SOS1 BINDING ASSAY KITS (Art. No. 63ADK000CB16PEG) from Cisbio was used in this method. Please refer to the kit instruction for detailed experimental operations.
The experimental process can be briefly described as follows: diluent buffer (Art. No. 62DLBDDF) was used to prepare a working solution with a concentration of 5× for Tag1-SOS1 and Tag2-KRAS-G12C protein. The test compounds were dissolved in DMSO to prepare storage solutions of 10 mM, and then the solutions were diluted with dilution buffer for later use. First, 2 μL of the test compound (the final concentrations of the reaction system were 10000 nM-0.1 nM) was added to the well, then 4 μL of Tag1-SOS1 5× working solution and 4 μL of Tag2-KRAS-G12C 5× working solution were added, and the above mixture was centrifuged, mixed, and stood for 15 minutes; then 10 μL of premixed anti-Tag1-Tb^3+ and anti-Tag2-XL665 were added, and the mixture was incubated at room temperature for 2 hours; finally, a microplate reader was used in […] mode to measure the fluorescence intensity of each well emitting wavelengths of 620 nm and […] under the excitation wavelength of 304 nm, and the fluorescence intensity ratio 665/620 in each well was calculated. Compared with the fluorescence intensity ratio of a control group (0.1% DMSO), the percentage inhibition rates of the test compounds at each concentration were calculated, and the IC50 values of the compounds were obtained by performing nonlinear regression analysis with logarithmic values of the compound concentration-inhibition rate by GraphPad Prism 5 software, which was shown in Table 1.

[2] = tested on: OCI-AML5 cells; assay: Inhibition of OCI-AML5 cell proliferation (CellTiter-Glo); type: cell-based; conditions: Homo sapiens, OCI-AML-5; OCI-AML5 cells (SOS1 N233Y mutation), 120 hours
Method: The following method was used to determine the influence of the compounds of the present invention on OCI-AML5 cells proliferation. OCI-AML5 cells (containing SOS1 N233Y mutation) were purchased from Nanjing Kebai Biotechnology Co., Ltd. and cultured in MEMα medium containing 10% fetal bovine serum, 100 U penicillin, and 100 μg/mL streptomycin. The activities of the cells were determined by CellTiter-Glo® Luminescent Cell Viability Assay Kit (Promega, Art. No. G7573).
The experimental method was operated according to the steps in the kit instruction, which were briefly described as follows: the test compounds were first dissolved in DMSO to prepare storage solutions of 10 mM, and then diluted with culture mediums to prepare test samples. The final concentrations of the compounds were 10000 nM to 0.15 nM. Cells in logarithmic phase were inoculated in a 96-well cell culture plate with 1,000 cells per well, after cultured overnight in 5% CO2 incubator at 37° C., the test compounds were added to the incubator to continue the culture for 120 hours. After the culture was completed, 50 μL of CellTiter-Glo detection solution was added to each well, shaken for 5 minutes and then stood for 10 minutes. Then, a Luminescence mode was used to read the luminescence values of each well of the samples on a microplate reader.

[3] = tested on: p-ERK1/2 in DLD-1 cells; assay: Inhibition of p-ERK1/2 in DLD-1 cells (Cisbio Advanced phospho-ERK1/2 kit); type: cell-based; conditions: Homo sapiens; DLD-1 cells (KRAS G13D mutation), hEGF 5 nM stimulation; read-out: IC50 (nM) Inhibition on p-ERK½ in DLD-1 cells
Excerpt: The following method was used to determine the inhibition activities of the compounds of the present invention on p-ERK1/2 in DLD-1 cells. The Advanced phospho-ERK1/2 (Thr202/tyr2O4) kit (Art. No. 64AERPEH) from Cisbio was used in this method. Please refer to the kit instruction for detailed experimental operations. DLD-1 cells (containing KRAS G13D mutation) were purchased from the Cell Resource Center of Shanghai Institutes for Biological Sciences, Chinese Academy of Sciences.
The experimental process can be briefly described as follows: DLD-1 cells were cultured in RPMI 1640 complete medium containing 10% fetal bovine serum, 100 U penicillin, 100 μg/mL streptomycin and 1 mM Sodium Pyruvate. DLD-1 cells were plated in a 96-well plate at 30,000 cells per well, after cultured overnight in 5% CO2 incubator at 37° C. with complete culture medium. The test compounds were dissolved in DMSO to prepare storage solutions of 10 mM, and then diluted with RPMI 1640 basic mediums. 90 μL of RPMI 1640 basic mediums containing the test compounds at the corresponding concentration were added to each well. The final concentrations of the test compounds in the reaction system were 10,000 nM to 0.15 nM, and were placed in a cell culture incubator for 3 hours and 40 minutes. Subsequently, 10 μL of hEGF (purchased from Roche, Art. No. 11376454001) prepared with RPMI 1640 basic medium was added to a final concentration of 5 nM, and placed in the incubator for culturing for 20 minutes. The cell supernatant was discarded, and the cells were washed with PBS on ice-bath. Then, 45 μl of 1× cell phospho/total protein lysis buffer (component of Advanced phospho-ERK1/2 kit) was added to each well for lysis. The 96-well plate was placed on ice for 0.5 hours to lyse, and then the lysate was detected according to the instruction of the Advanced phospho-ERK1/2 (Thr202/tyr2O4) kit. Finally, the microplate reader was used in […] mode to measure the fluorescence intensity of each well emitting wavelengths of 620 nm and […] under the excitation wavelength of 304 nm, and the fluorescence intensity ratio 665/620 in each well was calculated. By comparing with the fluorescence intensity ratio of a control group (0.1% DMSO), the percentage inhibition rates of the test compounds at each concentration were calculated, and the IC50 values of the compounds were obtained by performing nonlinear regression analysis with logarithmic values of the compound concentration-inhibition rate by GraphPad Prism 5 software, which can be seen in Table 3.

[4] = tested on: NCI-H358 cells; assay: Inhibition of NCI-H358 cell proliferation under 3D non-anchored conditions (CellTiter-Glo 3D); type: cell-based; conditions: Homo sapiens, NCI-H358 cells (KRAS G12C mutation), 120 hours
Method: The following method was used to determine the effects of the compounds of the present invention on NCI-H358 cell proliferation under three-dimensional (3D) non-anchored conditions. NCI-H358 cells (containing KRAS G12C mutation) were purchased from the Cell Resource Center of Shanghai Institutes for Biological Sciences, Chinese Academy of Sciences, and cultured in RPMI 1640 medium containing 10% fetal bovine serum, 100 U penicillin, 100 μg/mL streptomycin and 1 mM Sodium Pyruvate. The activities of the cells were determined by CellTiter-Glo® 3D Cell Viability Assay Kit (Promega, Art. No. G9683).
The experimental method was operated according to the steps in the kit instruction, which can be briefly described as follows: the test compounds were first dissolved in DMSO to prepare storage solutions of 10 mM, and then diluted with culture mediums to prepare test samples. The final concentrations of the compounds were 10000 nM to 0.15 nM. Cells in logarithmic phase were inoculated in an ultra-low adsorption 384-well cell culture plate (PerkinElmer, #3830) with 2000 cells per well, and the test compounds were added and cultured for 120 hours. After the culture was completed, 30 μL of CellTiter-Glo 3D detection solution was added to each well, shaken for 30 minutes and then stood for 120 minutes. Then, a Luminescence mode was used to read the luminescence values of each well of the samples on a microplate reader. By comparing with the numerical value of a control group (0.1% DMSO), the percentage inhibition rates of the compounds at each concentration were calculated, and the IC50 values of the compounds inhibiting cell proliferation were obtained by performing nonlinear regression analysis with logarithmic values of the compound concentration-inhibition rate by GraphPad Prism 5 software, which can be seen in Table 4.

| SMILES | IC50 [1] | IC50 [2] | IC50 [3] | IC50 [4] |
| --- | --- | --- | --- | --- |
| COc1cc2nc(C)nc(N[C@H](C)c3cccc(C#N)c3C)c2cc1N1CC(C#N)C1 [Compound 12, (R)-1-(4-((1-(3-cyano-2-methylphenyl)ethyl)amino)-7-methoxy-2-methylquinazolin-6-yl)azetidine-3-carbonitrile] | 88.4 nM | 23 nM | – | – |
| COc1cc2nc(C)nc(N[C@H](C)c3cccc(C#N)c3C)c2cc1N1CCN(S(C)(=O)=O)CC1 [Compound 13, (R)-3-(1-((7-methoxy-2-methyl-6-(4-(methylsulfonyl)piperazin-1-yl)quinazolin-4-yl)amino)ethyl)-2-methylbenzonitrile] | – | 25.4 nM | 73.5 nM | – |
| COc1cc2nc(C)nc(N[C@H](C)c3cccc(C#N)c3C)c2cc1N1CCC(N2CCN(C)CC2)CC1 [Compound 15, (R)-3-(1-((7-methoxy-2-methyl-6-(4-(4-methylpiperazin-1-yl)piperidin-1-yl)quinazolin-4-yl)amino)ethyl)-2-methylbenzonitrile] | 31.7 nM | 3.7 nM | – | – |
| COc1cc2nc(C)nc(N[C@H](C)c3cccc(C#N)c3C)c2cc1N1CCC2(CC1)CNC2 [Compound 16c, (R)-3-(1-((7-methoxy-2-methyl-6-(2,7-diazaspiro[3.5]nonan-7-yl)quinazolin-4-yl)amino)ethyl)-2-methylbenzonitrile] | 20.3 nM | 13.1 nM | – | – |
| COc1cc2nc(C)nc(N[C@H](C)c3cccc(C#N)c3C)c2cc1N1CCC(OC)CC1 [Compound 17, (R)-3-(1-((7-methoxy-6-(4-methoxypiperidin-1-yl)-2-methylquinazolin-4-yl)amino)ethyl)-2-methylbenzonitrile] | – | 10.6 nM | 29.2 nM | – |
| COc1cc2nc(C)nc(N[C@H](C)c3cccc(C#N)c3C)c2cc1N1CCC2(CCN(C(C)=O)CC2)CC1 [Compound 18, (R)-3-(1-((6-(9-acetyl-3,9-diazaspiro[5.5]undecan-3-yl)-7-methoxy-2-methylquinazolin-4-yl)amino)ethyl)-2-methylbenzonitrile] | – | 2.6 nM | – | 6.9 nM |
| COc1cc2nc(C)nc(N[C@H](C)c3cccc(C#N)c3C)c2cc1N1CCN(CCO)CC1 [Compound 20, (R)-3-(1-((6-(4-(2-hydroxyethyl)piperazin-1-yl)-7-methoxy-2-methylquinazolin-4-yl)amino)ethyl)-2-methylbenzonitrile] | – | – | – | 52.4 nM |
| COc1cc2nc(C)nc(N[C@H](C)c3cccc(C#N)c3C)c2cc1N1CCC(C(=O)N(C)C)CC1 [Compound 22, (R)-1-(4-((1-(3-cyano-2-methylphenyl)ethyl)amino)-7-methoxy-2-methylquinazolin-6-yl)-N, N-dimethylpiperidine-4-carboxamide] | – | 7.2 nM | 20.9 nM | 15.1 nM |
